Results as given in US12144814B2, “Compositions containing paraxanthine and beta-hydroxybutyrate or precursor for increasing neurological and physiological performance” (priority 2023, dated 2024).

Tests used:
[1] = in vivo; cited from earlier work
healthy young adults = assay: Sternberg Test; type: in vivo; conditions: 200 mg paraxanthine; 5 g BHB; 200 mg paraxanthine and 5 g BHB; letter length 2, 4, 6; FIGS. 9-11
From the text: The Sternberg Test is a test routinely used in the field to evaluate working memory, and ability to make use of short-term memory. A lower reaction time means that participants can access their working memory faster. The Sternberg Task Test is a widely used paradigm for studying short term/working memory involving cognitive control processes. Participants are asked to remember a short series of letters or other characters and then the participants has to respond if the series of letters or characters is present in a larger series of letters or characters. Reaction time is measured when the remembered short series is both present or absent. Mean response time is recorded. When running each such tests, subjects are given either paraxanthine+BHB, paraxanthine alone, BHB alone, or a placebo. The dosage amounts are 200 mg paraxanthine and 5 g of BHB, 200 mg of paraxanthine alone, 5 g of BHB alone, or a placebo. The testing is conducted under double blind, placebo controlled conditions. The subjects include 13 healthy young adults (10 male, 3 female), aged 24±5 years; height 170.0±11.8 cm; weight 72.9±19.3 kg.

Cn1c(=O)[nH]c2ncn(C)c2c1=O [paraxanthine, 1,7-dimethylxanthine]
wake promoting activity [1]: stronger wake promoting activity as compared to caffeine
Sternberg Test mean response time (healthy young adults): decreased mean response time
